Entries after “also recorded” stand apart in the source; their conditions may differ.
Legend:
[1] = Determination of distribution coefficient LogD7.4 (1-octanol/PBS); assay type: physicochemical; conditions: 1-octanol/PBS pH 7.4; ± SD; read-out: Log D7.4
Experimental: (§1) We experimentally confirmed their predicted poor to medium–good permeability profile by measuring their LogD at physiological pH through a known procedure, and by determining their percentage bound to model lipid bilayers after incubation, as a measure of their affinity for cell-membrane-like liposomes. Results are shown in Table 2 (LogD7.4, column 2; interaction with liposomes at 20 °C and 37 °C, columns 3 and 4, respectively).
LogD7.4 values were determined by slightly modifying a reported procedure. Namely, an 80 mM solution of each selected EDA analogue in DMSO was diluted in 1-octanol at a final 800 μM concentration. UV–vis spectra were acquired to determine λmax and the necessary dilutions to obtain absorption values for each tested analogue; between 0.5 and 1. 5 mL of each solution were placed in 15 mL conical centrifuge tubes, PBS was added (5 mL, pH 7.4) and the biphasic system was vigorously mixed using a vortex mixer (VELP Scientifica, Usmate Velate, MB, Italy) for 4 min. After centrifugation (2000× g, 30 min), the 1-octanol phase absorption was measured at each compound’ λmax; the procedure was repeated to acquire data in triplicate. The distribution coefficient logD7.4 was calculated according to the following equation: LogD7.4 = Log ([C]oct/[C]PBS) = Log (Af/Ai − Af)(2) where Ai is the pre-extraction measured absorbance in 1-octanol and Af is the post-extraction final measured absorbance in 1-octanol.

[2] = Interaction with liposome cell membrane models; assay type: in vitro ADME
Experimental: as §1
EDA analogues dissolved in MeOH (0.1 mL) were added to 0.9 mL of large unilamellar phosphatidylcholine vesicles (PC LUVs) in PBS (3 mM lipid final concentration; 0.6 mM EDA analogue final concentration) and incubated at 37 °C for 20 min. Then, any remaining free EDA analogue was separated from liposomes by size-exclusion chromatography.
A disposable syringe (2.5 mL) packed with hydrated Sephadex G-50 resin was placed in a 15 mL plastic test tube and preconditioned with PBS; then, the liposomal suspension (1 mL) was gently added on the top of the syringe and centrifuged at 500× g for 10 min. The eluate was collected at the bottom of the test tube and lysed by addition of Triton X-100 (final concentration 1% v/v). The concentration of each EDA analogue in each solution was estimated with the Folin–Ciocalteu assay. Namely, 50% Folin–Ciocalteu reagent (150 μL) was added to test samples (50 μL) into a 96-well microplate and shaken. After 10 min, a 7.5% sodium carbonate solution (0.1 mL) was added; the mixtures were incubated in the dark for 1 h at rt; and, finally, the absorbance was measured at 765 nm on a BioTek SynergyHT MicroPlate Reader spectrophotometer (Marshall Scientific, Hampton, NH, USA) using an appropriate blank. Reference calibration curves were plotted for every sample. The ratio (%) of the drug incorporated into the lipid bilayer was then calculated according to the following equation:% ratio of incorporated antioxidant = 100 × [incorporated amount]/[added amount](3)

Cu-induced ROS = Cu-induced ROS inhibition; conditions: ± SD
Text: Table 2 In vitro profiling for EDA 1 and selected analogues 2b, 2c and 4a. | column: Cu-Induced ROS Inhibition ^c,a

[3] = DPPH radical scavenging assay; conditions: 25 µM analogue, 100 µM DPPH, MeOH, 30 min incubation
Experimental: A DPPH assay was carried out after 30 min of incubation with EDA 1 and its analogues in reported conditions to determine their radical scavenging ability.
The DPPH free radical scavenging activity of EDA analogues was determined using a previously described method. Appropriate aliquots of putative antioxidants 1–13c were mixed with DPPH in methanol (25 µM EDA analogue, 100 µM DPPH, final concentration); the reaction mixtures were shaken and then incubated for 30 min in the dark. Their absorbances, and the absorbance of a DPPH solution as a negative control, were then measured at 517 nm with a BioTek SynergyHT MicroPlate Reader spectrophotometer (Marshall Scientific, Hampton, NH, USA) against methanol as blank. The scavenging percentage of each EDA analogue was calculated according to the following equation:DPPH radical scavenging (%) = [(Acontrol—Asample)/Acontrol] × 100,(1) where Acontrol is the control absorbance obtained by adding a methanol aliquot equal to the EDA analogue solution volume added to the methanolic DPPH solution and Asample is the absorbance of each test solution after 30 min incubation. All experiments were repeated at least three times, and measurements were run in triplicate.

[4] = tested on: oligodendrocyte progenitor cells (OPCs); assay: MTT reduction assay on purified OPC cultures; assay type: cell-based, mouse; conditions: 10 μM; for Effect on metabolic activity of OPCs (MTT reduction): 48 h incubation, purified mouse OPCs, vs DMSO controls
Experimental: Purified mouse OPCs were grown for 24 h and treated with EDA 1 and analogues 2b–4c (10 μM) for 44 h; then, MTT was added and OPCs were incubated for 4 h.
Primary cultures of purified OPC (>99%) were obtained from the cerebral hemispheres of newborn CD1 Swiss mice according to the authorization for the care and use of laboratory animals mentioned in Section 4.2.1. OPCs were grown in a defined serum-free Dulbecco’s Modified Eagle Medium (DMEM) without thyroid hormones at 1 × 10^5 cells/cm^2 into poly-L-lysine-coated 96-well microtiter plates for 3 days.
One day after plating, purified OPCs were incubated with or without EDA analogues (10 µM) in DMSO (0.001% vehicle) for 48 h. MTT reduction to formazan was carried out as previously described. MTT (Sigma-Aldrich, Milan, Italy) was added to the culture medium at a final 0.25 mg/mL concentration during the last 4 h of incubation.

[5] = Chemical stability in biological media (DPPH assay and TLC); assay type: in vitro ADME; conditions: PBS and standard medium, 20 min
Experimental: We investigated the stability of 4′-ester EDA 2c and N^1-carbamate 4′-ester EDA 4a (respectively, black and grey bars, Figure 5) in biological media, checking both ester and N^1-carbamate stability in 4a both by thin-layer chromatography (TLC) and by checking the DPPH radical scavenging activity of 2c and 4a after incubation.
Namely, 2c and 4a were incubated in PBS and in standard medium at 20 °C and 37 °C for 20 min; then, DPPH was added and the radical scavenging activity was measured in all media.
4′-Ester 2c and N^1-carbamate ester 4a were incubated in PBS and in a standard cell culture medium supplemented with FBS 10% at 20 °C and 37 °C. After 20 min, appropriate aliquots of the solutions were mixed with DPPH in methanol (25 µM, DPPH 100 µM, final concentration) and the DPPH radical scavenging assay was carried out as described above. Assay media after incubation were also monitored by TLC (eluent mixture: 1:1 cyclohexane/AcOEt).

[6] = tested on: oligodendrocyte progenitor cells (OPCs); assay: MTT reduction assay on purified OPC cultures; assay type: cell-based, mouse; conditions: lower dosages than 10 μM (not shown)

Structure (SMILES) | logD [1] | Affinity for a Model Lipid Bilayer, % ratio of liposome-bound EDA analogue ([2]; 20 °C) [%] | Affinity for a Model Lipid Bilayer, % ratio of liposome-bound EDA analogue ([2]; 37 °C) [%] | IC50 (Cu-induced ROS) [µM] | DPPH radical scavenging/antioxidant activity [3] | Effect on metabolic activity of OPCs (MTT reduction) [4] | also measured
CC1=NN(c2ccccc2)C(=O)C1 [Compound 1, edaravone, reference compound] | 1.1 ± 0.1 | 37 ± 3 | 53 ± 2 | 14 ± 2 |  |  | 
CC1=NN(c2ccc(C(=O)O)cc2)C(=O)C1 [Compound 2b] | -0.74 ± 0.19 | 38 ± 4 | 45 ± 2 | 38 ± 5 | significantly more potent than EDA 1; also recorded: significantly higher antioxidant activity than parent EDA 1 |  | 
COC(=O)c1ccc(N2N=C(C)CC2=O)cc1 [Compound 2c, Methyl 4-(3-methyl-5-oxo-4,5-dihydro-1H-pyrazol-1-yl)benzoate] | 1 ± 0.1 | 52 ± 2 | 71 ± 2 | 53 ± 7 | comparable antioxidant activity to EDA 1 | stimulated OPC metabolism comparably to EDA 1; also recorded: comparable stimulation of OPC metabolism | DPPH radical scavenging activity after incubation in biological media ([5]; 20 °C and 37 °C): expected radical scavenging activity; Stability in biological media by TLC ([5]; 20 °C and 37 °C): stability in biological media was confirmed
CC1=NN(c2ccc(C(=O)NCCN=[N+]=[N-])cc2)C(=O)C1 [Compound 2d] |  |  |  |  | comparable antioxidant activity to EDA 1 | did not stimulate OPC development compared to DMSO controls; also recorded: lack of activity on OPCs | 
CC1=NN(c2ccc(C(=O)NCCCCCCN=[N+]=[N-])cc2)C(=O)C1 [Compound 2e] |  |  |  |  |  | did not stimulate OPC development compared to DMSO controls; also recorded: lack of activity on OPCs | 
CC1=NN(c2ccc(C(=O)NCc3ccc(C4(C(F)(F)F)N=N4)cc3)cc2)C(=O)C1 [Compound 2f] |  |  |  |  |  | lack of activity on OPCs | Cytotoxicity on OPCs in MTT assay [4]: cytotoxic at this concentration; OPC activity in MTT assay at lower dosages [6]: inactive at lower dosages
CC1=NN(c2ccc(CO)cc2)C(=O)C1 [Compound 2g] |  |  |  |  | comparable antioxidant activity to EDA 1 |  | 
CC1=NN(c2ccc(CN=[N+]=[N-])cc2)C(=O)C1 [Compound 2h] |  |  |  |  | comparable antioxidant activity to EDA 1 | did not stimulate OPC development compared to DMSO controls; also recorded: lack of activity on OPCs | 
CCC1=NN(c2ccccc2)C(=O)C1 [Compound 3a] |  |  |  |  | comparable antioxidant activity to EDA 1 |  | Cytotoxicity on OPCs in MTT assay [4]: cytotoxic at this concentration; OPC activity in MTT assay at lower dosages [6]: inactive at lower dosages
O=C1CC(COCc2ccccc2)=NN1c1ccccc1 [Compound 3b] |  |  |  |  | comparable antioxidant activity to EDA 1 |  | 
COC(=O)c1ccc(-n2c(=O)cc(C)n2C(=O)OC(C)(C)C)cc1 [Compound 4a, Tert-butyl 2-(4-(methoxycarbonyl)phenyl)-5-methyl-3-oxo-2,3-dihydro-1H-pyrazole-1-carboxylate] | 2.3 ± 0.4 | 88 ± 6 | 77 ± 4 | 65 ± 6 |  | stimulated OPC metabolism comparably to EDA 1; also recorded: comparable stimulation of OPC metabolism | DPPH radical scavenging activity after incubation in biological media ([5]; 20 °C): did not scavenge DPPH; Stability in biological media by TLC ([5]; 20 °C): stability was confirmed by TLC; DPPH radical scavenging activity after incubation in biological media ([5]; 37 °C): significant antioxidant activity was detected; Stability in biological media by TLC (N^1-carbamate) ([5]; 37 °C): N^1-carbamate hydrolysis and 2c formation; also recorded: fully removed

Reference: article PMC10574562 (Molecules, 2023)
